According to article PMC8601599, “Computational redesign of a fluorogen activating protein with Rosetta” (PLoS Computational Biology, 2021):
Residue numbers refer to the chain shown, from its start.

Experiments:
Test in all cases: fluorescence titration
Type in all cases: binding
DiB-RM-split = target: T1, DiB-RM-split (Escherichia coli, UniProt P0A901, A36C/F53A/N76F/S89Y/E90V/S107A/L141N); details: apparent Kd, 1 μM chromophore, varied protein, excitation 490 nm
T1 construct: gene blc; two co-expressed self-assembling fragments of DiB-RM split between residues 109 and 110; E. coli XJb(DE3), TALON then size exclusion
T1 sequence (P0A901 20-109 A36C/F53A/N76F/S89Y/E90V/S107A): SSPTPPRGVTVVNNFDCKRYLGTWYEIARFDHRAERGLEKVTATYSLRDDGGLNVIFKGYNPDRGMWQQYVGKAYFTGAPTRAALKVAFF
T1 sequence (P0A901 110-177 L141N): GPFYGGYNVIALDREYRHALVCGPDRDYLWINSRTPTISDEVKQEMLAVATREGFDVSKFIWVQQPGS
From the text: fluorescence titration on DiB-RM-split

[1] = target: T2, DiB1; DiB-RM (lipocalin Blc mutants) (Escherichia coli, UniProt P0A901, A36C/F53A/N76F/S89Y/S107A/L141N); details: DiB-RM-V90E; apparent Kd; 1 μM chromophore, varied protein; excitation 490 nm
T2 construct: E. coli XJb(DE3) expression from pBAD, TALON then size exclusion; monomer in solution
T2 sequence (P0A901 20-177 A36C/F53A/N76F/S89Y/S107A/L141N): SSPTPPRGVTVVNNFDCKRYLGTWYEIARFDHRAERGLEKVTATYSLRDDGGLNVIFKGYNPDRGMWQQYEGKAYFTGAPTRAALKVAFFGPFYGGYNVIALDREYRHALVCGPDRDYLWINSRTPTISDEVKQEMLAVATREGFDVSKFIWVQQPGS
From the text: (§1) fluorescence titration on DiB1; DiB-RM (lipocalin Blc mutants)

[2] = target: T3, DiB1; DiB-RM (lipocalin Blc mutants) (Escherichia coli, UniProt P0A901, A36C/F53A/S89Y/E90V/S107A/L141N); details: DiB-RM-F76N; apparent Kd; 1 μM chromophore, varied protein; excitation 490 nm
T3 construct: E. coli XJb(DE3) expression from pBAD, TALON then size exclusion; monomer in solution
T3 sequence (P0A901 20-177 A36C/F53A/S89Y/E90V/S107A/L141N): T2 sequence (P0A901 20-177 A36C/F53A/N76F/S89Y/S107A/L141N) with F57N, E71V
From the text: as §1

[3] = target: T4, DiB1; DiB-RM (lipocalin Blc mutants) (Escherichia coli, UniProt P0A901, A36C/N76F/S89Y/E90V/S107A/L141N); details: DiB-RM-A53F; apparent Kd; 1 μM chromophore, varied protein; excitation 490 nm
T4 construct: E. coli XJb(DE3) expression from pBAD, TALON then size exclusion; monomer in solution
T4 sequence (P0A901 20-177 A36C/N76F/S89Y/E90V/S107A/L141N): T2 sequence (P0A901 20-177 A36C/F53A/N76F/S89Y/S107A/L141N) with A34F, E71V
From the text: as §1

[4] = target: T5, DiB1; DiB-RM (lipocalin Blc mutants) (Escherichia coli, UniProt P0A901, A36C/L141N); details: apparent Kd, 1 μM chromophore, varied protein, excitation 490 nm
T5 construct: E. coli XJb(DE3) expression from pBAD, TALON then size exclusion; monomer in solution
T5 sequence (P0A901 20-177 A36C/L141N): T2 sequence (P0A901 20-177 A36C/F53A/N76F/S89Y/S107A/L141N) with A34F, F57N, Y70S, A88S
From the text: as §1

[5] = target: T6, DiB1; DiB-RM (lipocalin Blc mutants) (Escherichia coli, UniProt P0A901, A36C/F53A/N76F/S89Y/E90V/S107A/L141N); details: apparent Kd, 1 μM chromophore, varied protein, excitation 490 nm
T6 construct: E. coli XJb(DE3) expression from pBAD, TALON then size exclusion; monomer in solution
T6 sequence (P0A901 20-177 A36C/F53A/N76F/S89Y/E90V/S107A/L141N): T2 sequence (P0A901 20-177 A36C/F53A/N76F/S89Y/S107A/L141N) with E71V
From the text: as §1

[6] = target: T7, DiB1; DiB-RM (lipocalin Blc mutants) (Escherichia coli, UniProt P0A901, A36C/F53A/N76F/S89Y/E90V/L141N); details: DiB-RM-A107S; apparent Kd; 1 μM chromophore, varied protein; excitation 490 nm
T7 construct: E. coli XJb(DE3) expression from pBAD, TALON then size exclusion; monomer in solution
T7 sequence (P0A901 20-177 A36C/F53A/N76F/S89Y/E90V/L141N): T2 sequence (P0A901 20-177 A36C/F53A/N76F/S89Y/S107A/L141N) with E71V, A88S
From the text: as §1

[7] = target: T8, DiB1; DiB-RM (lipocalin Blc mutants) (Escherichia coli, UniProt P0A901, A36C/F53A/N76F/E90V/S107A/L141N); details: DiB-RM-Y89S; apparent Kd; 1 μM chromophore, varied protein; excitation 490 nm
T8 construct: E. coli XJb(DE3) expression from pBAD, TALON then size exclusion; monomer in solution
T8 sequence (P0A901 20-177 A36C/F53A/N76F/E90V/S107A/L141N): T2 sequence (P0A901 20-177 A36C/F53A/N76F/S89Y/S107A/L141N) with Y70S, E71V
From the text: as §1

How did the Kd (DiB-RM-split) turn out when CCN(CC)c1ccc2c(c1)[B-](F)(F)[N+]1=C(C)N(C)C(=O)C1=C2 [M739] was run?
The Kd was 2800 ± 400 nM.

What about the Kd [1] of the same compound?
Its Kd is 380 ± 50 nM.

And the Kd [2]?
Its Kd is 70 ± 10 nM.

What about the Kd [3] of the same compound?
The Kd was 160 ± 40 nM.

What about the Kd [4] of the same compound?
The Kd was 40 ± 30 nM.

What about the Kd [5] of the same compound?
Its Kd is 170 ± 40 nM.

What about the Kd [6] of the same compound?
Its Kd is 290 ± 40 nM.

And the Kd [7]?
The Kd was 660 ± 80 nM.
